Experimental data: ChEMBL document CHEMBL4431375, “Stereochemistry Balances Cell Permeability and Solubility in the Naturally Derived Phepropeptin Cyclic Peptides” (ACS Med Chem Lett, 2016)
In brackets after ≈: the same amount, converted by molar mass.

Legend:
[1] = Thermodynamic aqueous solubility of the compound at 2 mM and pH 7.4 measured after 20 hrs by HPLC analysis; format: physicochemical; conditions: aqueous medium, read-out: Therm_solubility
[2] = Metabolic stability in human plasma assessed as compound degradation at 2 uM measured after 30 mins by LC-ESI/MS analysis; format: ADME, cell-free; conditions: 0.5 h
[3] = Apparent passive permeability in MDCK cells expressing MDR1 (unknown origin) at 5 uM measured after 60 mins by LC-MS/MS analysis; format: ADME, cell-based, Canis lupus familiaris; conditions: dog
[4] = Octanol-water partition coefficient, log D of the compound at pH 7.4 by shake flask method; format: physicochemical

SMILES | solubility thermodynamic at 20 h, 2000 µM [1] [µg/mL] | Stability [2] | Papp at 1 h, 5 µM [3] [×10⁻⁶ cm/s] | logD [4]
CC[C@H](C)[C@@H]1NC(=O)[C@@H](CC(C)C)NC(=O)[C@H](Cc2ccccc2)NC(=O)[C@@H]2CCCN2C(=O)[C@@H](Cc2ccccc2)NC(=O)[C@H](CC(C)C)NC1=O | 10 (≈ 13.7 µM) | Stable | 40 | 
CC(C)C[C@@H]1NC(=O)[C@H](C(C)C)NC(=O)[C@@H](CC(C)C)NC(=O)[C@H](Cc2ccccc2)NC(=O)[C@@H]2CCCN2C(=O)[C@@H](Cc2ccccc2)NC1=O | 50 (≈ 69.7 µM) | Stable | 39 | 2.33
CC(C)C[C@@H]1NC(=O)[C@H](C(C)C)NC(=O)[C@@H](CC(C)C)NC(=O)[C@H](CC(C)C)NC(=O)[C@H]2CCCN2C(=O)[C@@H](Cc2ccccc2)NC1=O | 150 (≈ 220 µM) | Stable | 8 | 2.37
CC[C@H](C)[C@@H]1NC(=O)[C@@H](CC(C)C)NC(=O)[C@H](Cc2ccccc2)NC(=O)[C@H]2CCCN2C(=O)[C@@H](Cc2ccccc2)NC(=O)[C@H](CC(C)C)NC1=O | 30 (≈ 41 µM) | Stable | 18 | 
CC(C)C[C@@H]1NC(=O)[C@H](C(C)C)NC(=O)[C@@H](CC(C)C)NC(=O)[C@H](Cc2ccccc2)NC(=O)[C@H]2CCCN2C(=O)[C@@H](Cc2ccccc2)NC1=O | 70 (≈ 97.6 µM) | Stable | 11 | 2.41
CC[C@H](C)[C@@H]1NC(=O)[C@@H](CC(C)C)NC(=O)[C@H](CC(C)C)NC(=O)[C@@H]2CCCN2C(=O)[C@@H](Cc2ccccc2)NC(=O)[C@H](CC(C)C)NC1=O | 60 (≈ 86.1 µM) | Stable | 40 | 2.63
CC(C)C[C@@H]1NC(=O)[C@H](C(C)C)NC(=O)[C@@H](CC(C)C)NC(=O)[C@H](CC(C)C)NC(=O)[C@@H]2CCCN2C(=O)[C@@H](Cc2ccccc2)NC1=O | 170 (≈ 249 µM) | Stable | 33 | 2.08
CC[C@H](C)[C@@H]1NC(=O)[C@@H](CC(C)C)NC(=O)[C@H](CC(C)C)NC(=O)[C@H]2CCCN2C(=O)[C@@H](Cc2ccccc2)NC(=O)[C@H](CC(C)C)NC1=O | 70 (≈ 100 µM) | Stable | 15 | 2.39
